{
  "source": "patent US4140707A",
  "about": "“Malonato platinum anti-tumor compounds” (priority 1977, dated 1979)",
  "key": {"Sarcoma 180 [1]": {"test_system": "Sarcoma 180", "experiment": "Antitumor activity, solid Sarcoma 180 (Table I), T/C tumor weight ratio, sacrifice day 10", "format": "in vivo, female Swiss white mice", "description": "The compounds of the invention were tested for anti-tumor activity using our standard screening tumor, solid sarcoma 180 tumer in female Swiss white mice, following standard protocols for this testing as set by the National Cancer Institute. (Cancer Chemotherapy Rep., 25(1962)).\nFor these tests an S 180 tumor taken from a sacrificed mouse was disected free of superfluous tissue and cut under sterile conditions into approximately 10 milligram size pieces. These tissue pieces were then implanted by trocar in the left axillary region, subcutaneously, in new mice. The mice were, on the average, approximately four weeks old and weighed 18-20 grams. Taking day 0 as the day of implant, the animals were sacrificed on day 10. The tumors were excised and weighed and the ratio of the weights of the tumors in mice in the treated animals to the control set of animals was obtained. This ratio, multiplied by 100, is given as the T/C ratio in Table I.\nFor the first set of tests the coordination compound was freshly dissolved in sterile distilled water and injected intraperitoneally on day 1 into each of the test mice. The volume of the injection was usually 1/2 ml. In some cases, in order to get an active dose into the animal where the chemical was not soluble in this amount of solvent, a fine dispersion was prepared of the dose needed for the test. Thus, some of our test results were obtained on animals where a slurry of the compound was injected. These are so noted in Table I below. In addition, for some of the compounds, there was injected about 1 ml of solution, either in one single injection, or in 2 injections given a few hours apart of 1/2 ml each. These injections were initially given in 4 different dose levels for each new compound with 6 mice in each dose level. The tests covered a dose range from a low ineffective dose, to an upper dose level which produced some deaths within the time period of the experiment."}, "Sarcoma 180 [2]": {"test_system": "Sarcoma 180", "experiment": "Large Sarcoma 180 regressions (Table II), injection day 8, observed approximately 60 days", "format": "in vivo, female Swiss white mice", "conditions": "single i.p. day 8, H2O solution", "description": "In addition to the day 1 injections described above, in a number of cases injections were delayed until day 8 of tumor growth. In these cases the tumor was usually at least larger than 1/2 gm, as estimated by palpation. The animals were then injected and observed for a period of approximately 60 days. Activity was measured by the number of animals whose tumors had regressed to the vanishing point, while still allowing the animal to survive for this time period. Such test results are described in TABLE II below."}, "[3]": {"test_system": "Walker 256 Carcinosarcoma", "experiment": "Confirmatory antitumor activity, Walker 256 Carcinosarcoma (Table III)", "format": "in vivo, Rat", "conditions": "single injection day 1 in oil, i.p.", "description": "Confirmatory tests of antitumor activity against the Walker 256 Circinosarcoma in rats, and the ADJ/PC6A tumor in mice were conducted. The initial test results are shown in Table III and confirm the potent action of the compounds of the invention against these other tumor systems."}, "[4]": {"experiment": "Hydrolysis by U.V./vis spectral and conductivity studies", "format": "physicochemical", "description": "*U.V./via spectral and conductivity studies have shown that hydrolysis is negligible."}, "[5]": {"conditions": "4 mg/kg, i.p. daily for days 1-10, solution in H2O"}, "[6]": {"conditions": "5 mg/kg, i.p. daily for days 1-10, solution in H2O"}, "[7]": {"conditions": "6 mg/kg, i.p. daily for days 1-10, solution in H2O"}, "[8]": {"conditions": "7 mg/kg, i.p. daily for days 1-10, solution in H2O"}, "[9]": {"conditions": "10 mg/kg, single i.p. day 1, slurry in H2O"}, "[10]": {"conditions": "15 mg/kg, single i.p. day 1, slurry in H2O"}, "[11]": {"conditions": "20 mg/kg, single i.p. day 1, slurry in H2O"}, "[12]": {"conditions": "25 mg/kg, single i.p. day 1, slurry in H2O"}, "[13]": {"conditions": "30 mg/kg, single i.p. day 1, slurry in H2O"}, "[14]": {"conditions": "50 mg/kg, single i.p. day 1, slurry in H2O"}},
  "data": [
    {"molecule": "O=C(O)CC(=O)O.[NH2-].[NH2-].[Pt+2]", "note": "[Malonatodiammineplatinum(II)]", "values": [
      {"measurement": "No. of Deaths", "setting": "Sarcoma 180 [1]; [5]", "value": 0},
      {"measurement": "T/C", "setting": "Sarcoma 180 [1]; [5]", "value": 54},
      {"measurement": "No. of Deaths", "setting": "Sarcoma 180 [1]; [6]", "value": 0},
      {"measurement": "T/C", "setting": "Sarcoma 180 [1]; [6]", "value": 56},
      {"measurement": "No. of Deaths", "setting": "Sarcoma 180 [1]; [7]", "value": 0},
      {"measurement": "T/C", "setting": "Sarcoma 180 [1]; [7]", "value": 23},
      {"measurement": "No. of Deaths", "setting": "Sarcoma 180 [1]; [8]", "value": 0},
      {"measurement": "T/C", "setting": "Sarcoma 180 [1]; [8]", "value": 12},
      {"measurement": "No. of Deaths", "setting": "Sarcoma 180 [1]; [9]", "value": 0},
      {"measurement": "T/C", "setting": "Sarcoma 180 [1]; [9]", "value": 76},
      {"measurement": "No. of Deaths", "setting": "Sarcoma 180 [1]; [10]", "value": 0},
      {"measurement": "T/C", "setting": "Sarcoma 180 [1]; [10]", "value": 38},
      {"measurement": "No. of Deaths", "setting": "Sarcoma 180 [1]; [11]", "value": 0},
      {"measurement": "T/C", "setting": "Sarcoma 180 [1]; [11]", "value": 64},
      {"measurement": "No. of Deaths", "setting": "Sarcoma 180 [1]; [12]", "value": 0},
      {"measurement": "T/C", "setting": "Sarcoma 180 [1]; [12]", "value": 31},
      {"measurement": "No. of Deaths", "setting": "Sarcoma 180 [1]; [13]", "value": "1/6"},
      {"measurement": "T/C", "setting": "Sarcoma 180 [1]; [13]", "value": 7},
      {"measurement": "No. of Deaths", "setting": "Sarcoma 180 [1]; 40 mg/kg, single i.p. day 1, slurry in H2O", "value": "6/6"},
      {"measurement": "No. of Deaths", "setting": "Sarcoma 180 [1]; [14]", "value": "5/6"},
      {"measurement": "T/C", "setting": "Sarcoma 180 [1]; [14]", "value": 1},
      {"measurement": "No. of Deaths", "setting": "Sarcoma 180 [1]; 60 mg/kg, single i.p. day 1, slurry in H2O", "value": "6/6"},
      {"measurement": "Deaths", "setting": "Sarcoma 180 [2]; 14 mg/kg", "value": 4},
      {"measurement": "Total Number of Regressions", "setting": "Sarcoma 180 [2]; 14 mg/kg", "value": 2},
      {"measurement": "Deaths", "setting": "Sarcoma 180 [2]; 16 mg/kg", "value": 3},
      {"measurement": "Total Number of Regressions", "setting": "Sarcoma 180 [2]; 16 mg/kg", "value": 3},
      {"measurement": "Deaths", "setting": "Sarcoma 180 [2]; 18 mg/kg", "value": 2},
      {"measurement": "Total Number of Regressions", "setting": "Sarcoma 180 [2]; 18 mg/kg", "value": 4},
      {"measurement": "Deaths", "setting": "Sarcoma 180 [2]; 20 mg/kg", "value": 1},
      {"measurement": "Total Number of Regressions", "setting": "Sarcoma 180 [2]; 20 mg/kg", "value": 5},
      {"measurement": "% Inhibition", "setting": "[3]; 10 mg/kg", "value": 100, "unit": "%"},
      {"measurement": "Deaths", "setting": "[3]; 10 mg/kg", "value": 0},
      {"measurement": "% Inhibition", "setting": "[3]; 20 mg/kg", "value": 100, "unit": "%"},
      {"measurement": "Deaths", "setting": "[3]; 20 mg/kg", "value": 0},
      {"measurement": "% Inhibition", "setting": "[3]; 40 mg/kg", "value": 100, "unit": "%"},
      {"measurement": "Deaths", "setting": "[3]; 40 mg/kg", "value": 0},
      {"measurement": "Deaths", "setting": "[3]; 80 mg/kg", "value": 0},
      {"measurement": "hydrolysis", "setting": "[4]", "value": "negligible"}
    ]}
  ]
}
